Measured values taken from patent publication US20250171413A1, “ANTIVIRAL INDOLINYL COMPOUNDS AND USES THEREOF” (Gilead Sciences, Inc., priority 2023, published 2025).
Read-outs that look alike come from different tables or passages of the source.

Test system: HSV-2 virus (MS strain)
Experiment: HSV-2 Cellomics Assay (immunofluorescence of HSV protein gD)
Format: cell-based
Settings: Human alphaherpesvirus 2, HSV-2 (MS strain, MOI 0.06) infected ARPE-19 cells, 16 hours
Procedure: Compounds were tested for their ability to inhibit HSV-2 replication by monitoring the expression of the HSV protein gD using a high-throughput immunofluorescence-based assay. 10-dose, 3-fold serial dilutions of compounds were prepared at starting concentrations of 0.2 or 2 mM in 100% DMSO. 250 nl of compounds were spotted in quadruplicates onto black collagen-coated 384-well microplates with clear bottom (Greiner cat #781956) using a Labcyte ECHO acoustic dispenser. The final starting concentration in the assay was either […]. DMSO (no compound) and pritelivir were included on each microplate as negative and positive controls, respectively.
ARPE-19 cells (ATCC cat #CRL-2302) were maintained DMEM/F-12 Glutamax medium (Thermo Fisher Scientific cat #10565018) supplemented with 10% FBS (Corning cat #35-011-CV) and 1% Penicillin-Streptomycin (cat #30-002-CI). Prior to confluence, cells were transferred to a centrifuge tube and spun for 5 minutes at 1000 rpm. Cells were resuspended in assay medium (DMEM/F-12 Glutamax, 2% FBS, 1% Penicillin-Streptomycin) and counted. Cell density was adjusted to 150,000 cells/ml and infected with HSV-2 virus (MS strain, ATCC cat #VR-540) at a MOI of 0.06 in a 50 ml conical tube for 1 hour under constant rocking. Cells were then spun for 5 minutes at 1000 rpm and the media replaced with assay medium containing either 2% FBS or 10% human serum (EMD Millipore cat #S1-100ML). 50 μl of the infection suspension were added into microplate wells that were pre-spotted with compounds (7,500 cells per well). Plates were incubated for 16 hours at 37° C.
Cell culture medium was aspirated using a Biomek Fx and 50 μl of a paraformaldehyde solution (Electron Microscopy Sciences cat #15712-5) diluted to 4% in DPBS (Corning cat #21-031-CM) were added per well. After a 30-minute incubation at room temperature, plates were washed 4 times with 100 μl/well of PBS using a Biotek plate washer. A 1:500 solution of primary antibody (anti-HSV gD, Virusys cat #P1103) was prepared in permeabilization buffer (Invitrogen cat #00-8333-56) and 50 μl were added into wells. After a 1-hour incubation at room temperature, 50 μl of a 1:1000 solution of secondary antibody (Alexa Fluor 488 goat anti-mouse, Thermo Fisher Scientific cat #A11001) and DAPI (Thermo Fisher Scientific cat #62248) in permeabilization buffer were added into wells and plates were incubated in the dark at room temperature for 1 hour. Plates were washed 4 times again and 50 μl of DPBS were added to all wells prior to sealing the plates with a black adhesive seal. Fluorescence was measured on a Cellomics plate reader.
Data analysis was carried out using the Thermo Scientific HCS Studio software. Briefly, cells were identified using the DAPI nuclear stain and thresholds were set to filter cells out based on shape and size. A second threshold based on green fluorescence intensity (detection of HSV-2 gD) was set to identify HSV-2 infected cells. Data was reported as the average fluorescence intensity of HSV-2 infected cells. EC50 values were defined as the compound concentration that caused a 50% decrease in the average fluorescence intensity and was calculated using a sigmoidal dose-response model to generate curve fits.

[1] = assay medium containing 2% FBS, read-out: EC50-HSV2-FBS
[2] = assay medium containing 10% human serum, read-out: EC50-HSV2-10% Human Serum

| EC50 [1] [nM] | EC50 [2] [nM] | SMILES |
| --- | --- | --- |
| 18 | 71 | CC[S@@](=N)(=O)c1cc2c(cc1F)CCN2C(=O)[C@@H]1Cc2ccc(-c3ccccn3)cc2C1 [Example 2, (R)-ethyl(5-fluoro-1-((R)-5-(pyridin-2-yl)-2,3-dihydro-1H-indene-2-carbonyl)indolin-6-yl)(imino)-λ^6-sulfanone] |
| 73 | 258 | CC[S@](=N)(=O)c1cc2c(cc1F)CCN2C(=O)[C@@H]1Cc2ccc(-c3ccccn3)cc2C1 [Example 3, (S)-ethyl(5-fluoro-1-((R)-5-(pyridin-2-yl)-2,3-dihydro-1H-indene-2-carbonyl)indolin-6-yl)(imino)-λ^6-sulfanone] |
| 178 | 474 | CC[S@](=N)(=O)c1cc2c(cc1F)CCN2C(=O)[C@H]1Cc2cc(-c3ccccn3)ccc2O1 [Example 5, (S)-ethyl(5-fluoro-1-((R)-5-(pyridin-2-yl)-2,3-dihydrobenzofuran-2-carbonyl)indolin-6-yl)(imino)-λ^6-sulfanone] |
| 40 | 81 | CC[S@@](=N)(=O)c1cc2c(cc1F)CCN2C(=O)[C@H]1Cc2cc(-c3ccccn3)ccc2O1 [Example 6, (R)-ethyl(5-fluoro-1-((R)-5-(pyridin-2-yl)-2,3-dihydrobenzofuran-2-carbonyl)indolin-6-yl)(imino)-λ^6-sulfanone] |
| 16 | 77 | CCC[S@@](=N)(=O)c1cc2c(cc1F)CCN2C(=O)[C@@H]1Cc2ccc(-c3ccccn3)cc2C1 [Example 8, (R)-(5-fluoro-1-((R)-5-(pyridin-2-yl)-2,3-dihydro-1H-indene-2-carbonyl)indolin-6-yl)(imino)(propyl)-λ^6-sulfanone] |
| 52 | 218 | CCC[S@](=N)(=O)c1cc2c(cc1F)CCN2C(=O)[C@@H]1Cc2ccc(-c3ccccn3)cc2C1 [Example 9, (S)-(5-fluoro-1-((R)-5-(pyridin-2-yl)-2,3-dihydro-1H-indene-2-carbonyl)indolin-6-yl)(imino)(propyl)-λ^6-sulfanone] |
| 124 | 406 | CCC[S@](=N)(=O)c1cc2c(cc1F)CCN2C(=O)[C@H]1Cc2cc(-c3ccccn3)ccc2O1 [Example 11, (S)-(5-fluoro-1-((R)-5-(pyridin-2-yl)-2,3-dihydrobenzofuran-2-carbonyl)indolin-6-yl)(imino)(propyl)-λ^6-sulfanone] |
| 35 | 98 | CCC[S@@](=N)(=O)c1cc2c(cc1F)CCN2C(=O)[C@H]1Cc2cc(-c3ccccn3)ccc2O1 [Example 12, (R)-(5-fluoro-1-((R)-5-(pyridin-2-yl)-2,3-dihydrobenzofuran-2-carbonyl)indolin-6-yl)(imino)(propyl)-λ^6-sulfanone] |
| 31 | 55 | COCCS(=N)(=O)c1cc2c(cc1F)CCN2C(=O)[C@@H]1Cc2ccc(-c3ccccn3)cc2C1 (stereo partly drawn) [Example 13, (5-fluoro-1-((R)-5-(pyridin-2-yl)-2,3-dihydro-1H-indene-2-carbonyl)indolin-6-yl)(imino)(2-methoxyethyl)-16-sulfanone] |
| 25 | 54 | COCC[S@@](=N)(=O)c1cc2c(cc1F)CCN2C(=O)[C@@H]1Cc2ccc(-c3ccccn3)cc2C1 [Example 14, (R)-(5-fluoro-1-((R)-5-(pyridin-2-yl)-2,3-dihydro-1H-indene-2-carbonyl)indolin-6-yl)(imino)(2-methoxyethyl)-λ^6-sulfanone] |
| 42 | 87 | COCC[S@](=N)(=O)c1cc2c(cc1F)CCN2C(=O)[C@@H]1Cc2ccc(-c3ccccn3)cc2C1 [Example 15, (S)-(5-fluoro-1-((R)-5-(pyridin-2-yl)-2,3-dihydro-1H-indene-2-carbonyl)indolin-6-yl)(imino)(2-methoxyethyl)-λ6-sulfanone] |
| 39 | 59 | COCC[S@@](=N)(=O)c1cc2c(cc1F)CCN2C(=O)[C@H]1Cc2cc(-c3ccccn3)ccc2O1 [Example 17, (R)-(5-fluoro-1-((R)-5-(pyridin-2-yl)-2,3-dihydrobenzofuran-2-carbonyl)indolin-6-yl)(imino)(2-methoxyethyl)-λ^6-sulfanone] |
| 92 | 208 | COCC[S@](=N)(=O)c1cc2c(cc1F)CCN2C(=O)[C@H]1Cc2cc(-c3ccccn3)ccc2O1 [Example 18, (S)-(5-fluoro-1-((R)-5-(pyridin-2-yl)-2,3-dihydrobenzofuran-2-carbonyl)indolin-6-yl)(imino)(2-methoxyethyl)-λ^6-sulfanone] |
| 56 | 453 | N=S(=O)(c1cc2c(cc1F)CCN2C(=O)[C@@H]1Cc2ccc(-c3ccccn3)cc2C1)C1CC1 (stereo partly drawn) [Example 19, cyclopropyl(5-fluoro-1-((R)-5-(pyridin-2-yl)-2,3-dihydro-1H-indene-2-carbonyl)indolin-6-yl)(imino)-λ^6-sulfanone] |
| 33 | 248 | N=[S@](=O)(c1cc2c(cc1F)CCN2C(=O)[C@@H]1Cc2ccc(-c3ccccn3)cc2C1)C1CC1 [Example 20, (R)-cyclopropyl(5-fluoro-1-((R)-5-(pyridin-2-yl)-2,3-dihydro-1H-indene-2-carbonyl)indolin-6-yl)(imino)-λ^6-sulfanone] |
| 98 | 949 | N=[S@@](=O)(c1cc2c(cc1F)CCN2C(=O)[C@@H]1Cc2ccc(-c3ccccn3)cc2C1)C1CC1 [Example 21, (S)-cyclopropyl(5-fluoro-1-((R)-5-(pyridin-2-yl)-2,3-dihydro-1H-indene-2-carbonyl)indolin-6-yl)(imino)-λ^6-sulfanone] |
| 211 | 737 | CN=S(C)(=O)c1cc2c(cc1F)CCN2C(=O)[C@@H]1Cc2ccc(-c3ccccn3)cc2C1 (stereo partly drawn) [Example 22, (5-fluoro-1-((R)-5-(pyridin-2-yl)-2,3-dihydro-1H-indene-2-carbonyl)indolin-6-yl)(methyl)(methylimino)-l6-sulfanone] |
| 155 | 522 | CN=[S@](C)(=O)c1cc2c(cc1F)CCN2C(=O)[C@@H]1Cc2ccc(-c3ccccn3)cc2C1 [Example 23, (R)-(5-fluoro-1-((R)-5-(pyridin-2-yl)-2,3-dihydro-1H-indene-2-carbonyl)indolin-6-yl)(methyl)(methylimino)-λ^6-sulfanone] |
| 72 | 203 | CCS(=N)(=O)c1cc2c(cc1F)CC(C)N2C(=O)[C@@H]1Cc2ccc(-c3ccccn3)cc2C1 (stereo partly drawn) [Example 25, ethyl(5-fluoro-2-methyl-1-((R)-5-(pyridin-2-yl)-2,3-dihydro-1H-indene-2-carbonyl)indolin-6-yl)(imino)-λ^6-sulfanone] |
| 30 | 92 | CC[S@@](=N)(=O)c1cc2c(cc1F)C[C@@H](C)N2C(=O)[C@@H]1Cc2ccc(-c3ccccn3)cc2C1 [Example 26, (R)-ethyl((R)-5-fluoro-2-methyl-1-((R)-5-(pyridin-2-yl)-2,3-dihydro-1H-indene-2-carbonyl)indolin-6-yl)(imino)-λ^6-sulfanone] |
| 55 | 113 | CC[S@](=N)(=O)c1cc2c(cc1F)C[C@@H](C)N2C(=O)[C@@H]1Cc2ccc(-c3ccccn3)cc2C1 [Example 27, (S)-ethyl((R)-5-fluoro-2-methyl-1-((R)-5-(pyridin-2-yl)-2,3-dihydro-1H-indene-2-carbonyl)indolin-6-yl)(imino)-λ^6-sulfanone] |
| 5 | 304 | CCNS(=O)(=O)c1cc2c(cc1F)CCN2C(=O)[C@@H]1Cc2ccc(-c3ccccn3)cc2C1 [Example 30, (R)—N-ethyl-5-fluoro-1-(5-(pyridin-2-yl)-2,3-dihydro-1H-indene-2-carbonyl)indoline-6-sulfonamide] |
| 10 | 570 | CCNS(=O)(=O)c1cc2c(cc1F)CCN2C(=O)[C@H]1Cc2cc(-c3ccccn3)ccc2O1 [Example 31, (R)—N-ethyl-5-fluoro-1-(5-(pyridin-2-yl)-2,3-dihydrobenzofuran-2-carbonyl)indoline-6-sulfonamide] |
